Data as given in publication PMC8224453, “A New PqsR Inverse Agonist Potentiates Tobramycin Efficacy to Eradicate Pseudomonas aeruginosa Biofilms” (Advanced Science, 2021).
Values joined by “and” are separate entries in the source; they are usually repeats but may differ in a detail not shown here. Identical values can stand only once. Like-named read-outs stand apart in the source and are kept apart here.

Assays:
[1] = system: eDNA production in PA biofilm; test: Inhibition of eDNA production in biofilm; format: cell-based; details: Pseudomonas aeruginosa
[2] = Metabolic stability, mouse liver S9; format: in vitro ADME
Description: For the evaluation of combined phase I and phase II metabolic stability, the compound (1 μM) was incubated with 1 mg/mL pooled liver S9 fraction from the respective species (Xenotech), […]
2 mM NADPH, 1 mM UDPGA, 10 mM MgCl2, 5 mM GSH and 0.1 mM PAPS at 37 °C for […]
0, 5, 15, 30 or 60 min. The metabolic stability of Testosterone (1 μM) and verapamil (1 μM) […]
were determined in parallel to confirm the enzymatic activity of the S9 fraction. The […]
incubation was stopped by precipitation of S9 enzymes with 2 volumes of cold acetonitrile […]
containing internal standard (750 nM Diphenhydramine). Samples were stored on ice for 10 […]
min and precipitated protein was removed by centrifugation (10 min, 4 °C, 17,000 g).
Concentration of the remaining test compound at the different time points was analyzed by […]
LC-MS/MS (TSQ Quantum Access MAX, Thermo Fisher, Dreieich, Germany) and used to […]
determine half-life (t1/2). Stability of compound 4 in further S9 fractions are summarized in […]
Table S4. Metabolic stability studies in various S9 fractions. […]

[3] = system: Ca2+ channel (L, dihydropyridine site); test: CEREP off-target panel, antagonist radioligand; format: binding; details: @10µM
Description: (§1) 5. In vitro ADME/T and Safety Pharmacology
(§2) 5.1. CEREP off-targets assay
(§3) Experiments towards possible off-target effects were conducted following Eurofins Discovery protocol. Detailed information about the assays can be found in: https://www.eurofinsdiscoveryservices.com/catalogmanagement/viewitem/SafetyScreen44- […]
(§4) Table S3. Possible CEREP off-targets. entry off-target QSI 4 QSI 17 Assay
(§5) (%binding (%binding method
(§6) (1 picture or pasted object on this page, not shown here)

Dopamine transporter = biological target: T1, Dopamine transporter (Homo sapiens, UniProt Q01959); test: CEREP off-target panel, antagonist radioligand; format: binding; details: @10µM
T1 construct: Eurofins Discovery (SafetyScreen44 Panel, Cerep) P270
T1 sequence (Q01959 whole entry): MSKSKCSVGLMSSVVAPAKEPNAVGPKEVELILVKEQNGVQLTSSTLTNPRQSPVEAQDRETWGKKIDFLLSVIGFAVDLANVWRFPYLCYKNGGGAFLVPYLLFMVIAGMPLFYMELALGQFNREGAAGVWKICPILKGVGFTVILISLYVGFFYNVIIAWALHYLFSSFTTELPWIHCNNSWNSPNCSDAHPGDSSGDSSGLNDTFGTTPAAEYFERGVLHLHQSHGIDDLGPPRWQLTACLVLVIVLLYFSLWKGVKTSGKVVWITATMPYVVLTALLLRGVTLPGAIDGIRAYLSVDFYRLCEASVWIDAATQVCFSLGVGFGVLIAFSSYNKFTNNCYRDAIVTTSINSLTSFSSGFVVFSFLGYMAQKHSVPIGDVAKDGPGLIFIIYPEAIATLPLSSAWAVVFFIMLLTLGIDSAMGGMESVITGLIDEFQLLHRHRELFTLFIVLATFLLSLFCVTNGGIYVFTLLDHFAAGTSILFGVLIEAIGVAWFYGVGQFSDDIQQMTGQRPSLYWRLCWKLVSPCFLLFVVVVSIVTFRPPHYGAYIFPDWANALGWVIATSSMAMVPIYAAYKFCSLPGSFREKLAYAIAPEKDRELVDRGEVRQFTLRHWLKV
Description: as §1, §2, §3, §4, §5, §6

Na+ channel (site 2) = test: CEREP off-target panel, antagonist radioligand; format: binding; details: @10µM
Description: as §1, §2, §3, §4, §5, §6

[4] = biological target: T2, Norepinephrine transporter (Homo sapiens, UniProt P23975); test: CEREP off-target panel, antagonist radioligand; format: binding; details: @10µM
T2 construct: Eurofins Discovery (SafetyScreen44 Panel, Cerep) P270
T2 sequence (P23975 whole entry): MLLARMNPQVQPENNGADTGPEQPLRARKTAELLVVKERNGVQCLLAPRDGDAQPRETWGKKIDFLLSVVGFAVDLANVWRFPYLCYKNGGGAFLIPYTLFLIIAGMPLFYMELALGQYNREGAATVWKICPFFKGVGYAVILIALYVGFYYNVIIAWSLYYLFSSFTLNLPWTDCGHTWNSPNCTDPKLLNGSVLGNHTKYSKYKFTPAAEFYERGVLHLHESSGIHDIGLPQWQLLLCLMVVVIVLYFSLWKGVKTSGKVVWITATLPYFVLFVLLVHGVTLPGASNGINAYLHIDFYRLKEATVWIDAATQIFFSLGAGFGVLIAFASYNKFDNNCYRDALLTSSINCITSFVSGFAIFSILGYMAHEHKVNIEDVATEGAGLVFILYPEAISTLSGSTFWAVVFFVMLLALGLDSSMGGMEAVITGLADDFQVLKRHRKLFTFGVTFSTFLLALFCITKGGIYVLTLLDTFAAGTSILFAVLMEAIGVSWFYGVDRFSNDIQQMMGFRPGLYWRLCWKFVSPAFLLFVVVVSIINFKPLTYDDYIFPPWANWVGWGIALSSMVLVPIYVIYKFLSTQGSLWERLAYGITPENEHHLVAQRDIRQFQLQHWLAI
Description: as §1, §2, §3, §4, §5, §6

α1A receptor = biological target: T3, α1A receptor (Homo sapiens, UniProt P35348); test: CEREP off-target panel, antagonist radioligand; format: binding; details: @10µM
T3 construct: Eurofins Discovery (SafetyScreen44 Panel, Cerep) P270
T3 sequence (P35348 whole entry): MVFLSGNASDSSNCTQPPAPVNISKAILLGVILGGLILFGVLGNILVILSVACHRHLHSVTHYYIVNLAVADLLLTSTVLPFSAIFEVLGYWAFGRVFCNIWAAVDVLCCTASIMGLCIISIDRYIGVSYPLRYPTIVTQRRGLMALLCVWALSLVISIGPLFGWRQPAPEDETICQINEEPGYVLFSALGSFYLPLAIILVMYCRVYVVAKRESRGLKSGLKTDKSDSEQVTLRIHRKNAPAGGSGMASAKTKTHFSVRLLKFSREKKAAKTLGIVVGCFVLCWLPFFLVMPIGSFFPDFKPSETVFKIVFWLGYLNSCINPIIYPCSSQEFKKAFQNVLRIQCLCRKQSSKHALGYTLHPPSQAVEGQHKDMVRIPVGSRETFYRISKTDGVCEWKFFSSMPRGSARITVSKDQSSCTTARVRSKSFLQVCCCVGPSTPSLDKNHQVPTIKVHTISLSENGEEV
Description: as §1, §2, §3, §4, §5, §6

β2 receptor = biological target: T4, β2 receptor (Homo sapiens, UniProt P07550); test: CEREP off-target panel, antagonist radioligand; format: binding; details: @10µM
T4 construct: Eurofins Discovery (SafetyScreen44 Panel, Cerep) P270
T4 sequence (P07550 whole entry): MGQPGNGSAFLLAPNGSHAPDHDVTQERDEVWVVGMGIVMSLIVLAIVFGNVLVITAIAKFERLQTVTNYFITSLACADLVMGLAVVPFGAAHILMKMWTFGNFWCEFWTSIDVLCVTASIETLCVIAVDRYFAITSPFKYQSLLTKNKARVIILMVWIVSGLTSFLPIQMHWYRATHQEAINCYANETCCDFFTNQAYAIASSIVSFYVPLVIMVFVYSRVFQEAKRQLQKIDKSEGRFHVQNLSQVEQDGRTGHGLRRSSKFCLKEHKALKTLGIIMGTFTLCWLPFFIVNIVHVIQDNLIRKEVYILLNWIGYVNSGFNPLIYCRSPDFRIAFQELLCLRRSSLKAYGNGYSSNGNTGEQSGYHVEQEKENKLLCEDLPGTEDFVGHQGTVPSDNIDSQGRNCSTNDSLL
Description: as §1, §2, §3, §4, §5, §6

PA14 wt biofilm = test: Minimum biofilm eradicating concentration (MBEC) assay; format: cell-based, Pseudomonas aeruginosa
Source text: page 21: wild type (PA14 wt) was purchased from DSMZ, the German Collection of Microorganism and Cell Cultures GmbH (PA14 = DSMZ19882) and cultured in minimal proteose peptone glucose ammonium salt (PPGAS) medium. […] KCl, 19 g/L Tris-HCl, 10 g/L peptone, 5 g/L glucose and 0.1 g/L MgSO4∙7H2O. The pH value […] Agar solution was […] resulting solution was sterilized before being plated. The minimum inhibitory concentration (IC) of drug-free SqNPs, compound 4 prepared either in dimethyl sulfoxide (DMSO) or loaded in SqNPs, free Tob, Tob-loaded SqNPs, and Tob and compound 4 co-loaded SqNPs against planktonic PA14 wt were determined by standard microbroth dilution assays in 96-well plates. PA14 wt suspension was prepared from mid-log cultures in PPGAS medium and […] PBS served as a control. […] The MBECs of free Tob, Tob-loaded SqNPs, free Tob plus free compound 4 prepared in DMSO, and Tob and compound (4) co-loaded SqNPs were determined by the MBEC assay as reported in previous study.[2,7] […] The biofilm-eradicating efficacy was assessed according to viable bacterial load determined using dilution in PBS/0.05% Tween20 and plating on agar S20 page 22: plates to count CFU after overnight incubation at […]. […] Using GraphPad Prism 8.4.2, the AUC was calculated for each condition. […] After a 24h treatment, efficacy was assessed by determination of colony-forming units per millilitre (CFU/mL). […]

[5] = pooled mouse liver S9 fraction, Table 2, read-out: Metabolic stability t 1/2 S9 mouse

Compound	IC50 [1] [nM]	half-life at 1 μM ([2]; pooled liver S9 fraction, Table S4, read-out: t1/2 mouse liver S9) [min]	half-life at 1 μM [2, 5] [min]	% binding, Ca2+ channel (L, dihydropyridine site) [3] [%]	% binding, Dopamine transporter (Dopamine transporter) [%]	% binding, Na+ channel (site 2) (Na+ channel (site 2)) [%]	% binding, Norepinephrine transporter [4] [%]	% binding, α1A receptor (α1A receptor) [%]	% binding, β2 receptor (β2 receptor)	PA14 wt biofilm inhibitory effect (PA14 wt biofilm; controls of the MBEC assay, compound 4 at 20 μM)	MBEC (Tob concentration for complete biofilm eradication) (PA14 wt biofilm; PA14 wt biofilm, 24 h treatment, 4 constant at 20 × 10^−6 M where used)
FC(F)(F)c1cc(NCc2cn(-c3ccc(Oc4ccccc4)cc3)nn2)ccn1 [Compound 4]	220 ± 50	19.9 ± 7.5	29	78.29	97.25	54.62	82.52	40.59	18.03% and 18%	did not show any PA14 wt biofilm inhibitory effects	–
COc1ccc(-n2cc(CNc3ccnc(C(F)(F)F)c3)nn2)cc1Cl [Compound 17]	1600 ± 1100	–	11	30.36	28.91	-27.90	8.58	55.42	85.3% and 85%	–	–
NC[C@H]1O[C@H](O[C@H]2[C@H](O)[C@@H](O[C@H]3O[C@H](CO)[C@@H](O)[C@H](N)[C@H]3O)[C@H](N)C[C@@H]2N)[C@H](N)C[C@@H]1O [Tobramycin, tobramycin]	–	–	–	–	–	–	–	–	–	–	higher than 200 µg mL^−1
